{"source": "patent US10450549B2", "about": "“Aryloxyphenoxypropionate tolerance in turfrgass species and use of AAD1 as a selectable marker” (Dow AgroSciences, LLC, priority 2004, dated 2019)", "key": {"[1]": {"system": "Arabidopsis thaliana var. Columbia", "experiment": "Arabidopsis plate test bioassay for herbicide degradation", "type": "in vivo", "conditions": "for IC50: 168 h; for GR50 ratio: enzyme-expressing lysate vs blank vector, ≥ 2 = threshold for activity loss; for herbicidal activity after AAD1 (v1) treatment, Arabidopsis plate assay: unpurified recombinant AAD1 (v1) extract"}, "[2]": {"system": "Non-transformed hybrids", "experiment": "Field tolerance to quizalofop and 2,4-D: non-transformed hybrids", "type": "in vivo, corn", "conditions": "for % Injury 3 WAA (0-100 scale): 140 g ae/ha", "excerpt": "Two field trials were established at field stations in Hawaii and Indiana. […] The hybrid Hi-II×5XH571 is of the same parentage as the AAD1 (v3) event lines. The hybrid Croplan 585SR is a sethoxydim resistant line.\nThe experimental design was a split-plot with four replications. The main plot was herbicide treatment and the sub-plot was AAD1 (v3) event or comparison hybrid. Plots were one row by 3.7 meters with approximately twenty-five seeds planted in each row. For AAD1 events, seeds from a different lineage within the event were planted in each replicate.\nGlufosinate at 560 g ai/ha was applied to AAD1 (v3) plots at the V2 stage to eliminate non-transformed plants. […] Treatments were applied using backpack broadcast boom equipment delivering 187 L/ha carrier volume at 130-200 kpa pressure.\nQuizalofop treated plots were visually assessed for crop injury at one and three weeks after application (WAA) using a 0-100% scale, where 0 equals no injury and 100 equals complete death."}, "[3]": {"system": "Hi-II corn grown from seed", "experiment": "Lethal dose of AOPP herbicides on non-transformed Hi-II corn", "conditions": "for rate that effectively kills (>95% injury) three to four leaf Hi-II corn: postemergence, commercial formulations"}, "[4]": {"system": "creeping bentgrass cv Crenshaw callus", "experiment": "Callus selection conditions with quizalofop and haloxyfop: creeping bentgrass", "type": "cell-based, Agrostis stolonifera", "method": "Selection conditions for creeping bentgrass cv Crenshaw and Kentucky bluegrass cv Shamrock were established using the grass-active herbicides, quizalofop and haloxyfop. Concentrations of quizalofop and haloxyfop ranged from 0 to 300 nM dissolved in defined callus maintenance media for each species. Callus tissue, derived from mature seeds of each species or cultivar, was used in the experiment. In the case of creeping bentgrass cv Crenshaw, calli maintained on CBG-3 medium were transferred to plates of CBG-3 medium containing either haloxyfop or quizalofop at 0, 50, 100, 150, 200, 250, and 300 nM final concentrations. Visual observations (growth of callus and development of necrosis) were made over a period of 1.5 months. For Kentucky bluegrass cv Shamrock and experimental line A98, calli maintained on KBG-2 were transferred to plates of KBG-2 medium containing 0, 50, 100, 150, 200, 250, and 300 nM final concentrations of the herbicides. Visual observations of callus growth and necrosis were made over a 2.5 month period. […] The calli became necrotic at lower concentrations of quizalofop relative to haloxyfop and the response was more rapid. […]"}, "[5]": {"system": "AAD1 (v3)-transformed T0 corn events", "experiment": "Tolerance of T0 AAD1 (v3) corn plants (pDAB3404) to postemergence AOPP herbicides", "type": "in vivo"}, "[6]": {"conditions": "Arabidopsis thaliana, read-out: GR50, Chemical + AAD1 v1"}, "[7]": {"conditions": "Escherichia coli, in Arabidopsis thaliana, cell lysate of E. coli pET vector without gene insert, read-out: GR50, Chemical + Blank Vector"}}, "note": "Where two headings read alike, the source gives them in different places."}
{"smiles": "Nc1c(Cl)c(F)nc(OCC(=O)O)c1Cl", "note": "[Fluroxypyr]", "values": [{"measurement": "IC50", "setting": "[1]; [6]", "result": 1820, "unit": "nM"}, {"measurement": "IC50", "setting": "[1]; Arabidopsis thaliana, root length, 7 days, read-out: GR50, Chemical alone", "result": 2200, "unit": "nM"}, {"measurement": "IC50", "setting": "[1]; [7]", "result": 2250, "unit": "nM"}, {"measurement": "GR50 ratio", "setting": "[1]", "result": "<1"}]}
{"smiles": "O=C(O)COc1ccc(Cl)cc1Cl", "note": "[2,4-D, 2,4-dichlorophenoxyacetic acid]", "values": [{"measurement": "IC50", "setting": "[1]; [6]", "result": 267, "unit": "nM"}, {"measurement": "IC50", "setting": "[1]; Arabidopsis thaliana, read-out: GR50, Chemical alone", "result": 22, "unit": "nM"}, {"measurement": "IC50", "setting": "[1]; Escherichia coli, in Arabidopsis thaliana, read-out: GR50, Chemical + Blank Vector", "result": 17, "unit": "nM"}, {"measurement": "herbicidal activity after AAD1 (v1) treatment, Arabidopsis plate assay", "setting": "[1]", "result": "almost complete loss"}, {"measurement": "epinastic leaning in non-transformed hybrids", "setting": "[2]; 1120 g ae/ha, 2 DAA", "result": "11-33%"}, {"measurement": "brace root deformation rating (0-10 scale)", "setting": "[2]; 1120 g ae/ha, non-transformed hybrids, 3-4 WAA", "result": 9}]}
{"smiles": "CC(Oc1ccc(Oc2ncc(C(F)(F)F)cc2Cl)cc1)C(=O)O", "note": "(stereo not shown) [haloxyfop]", "values": [{"measurement": "lethal dose", "setting": "[3]; Gallant super + 1% COC (v/v)", "result": 8.8, "unit": "g ae/ha)"}, {"measurement": "rate that effectively kills (>95% injury) three to four leaf Hi-II corn", "setting": "[3]", "result": 8.8, "unit": "g ae/ha"}, {"measurement": "concentration sufficient to kill callus within six weeks", "setting": "[4]", "result": 250, "unit": "nM"}, {"measurement": "% Injury 14 DAT", "setting": "[5]; 8.8 g ae/ha, construct 3404 event 001 clone 016", "result": 0, "unit": "%"}, {"measurement": "% Injury 14 DAT", "setting": "[5]; 8.8 g ae/ha, construct 3404 event 022 clone 019", "result": 0, "unit": "%"}, {"measurement": "% Injury 14 DAT", "setting": "[5]; 8.8 g ae/ha, construct 3404 event 038 clone 016", "result": 0, "unit": "%"}, {"measurement": "% Injury 14 DAT", "setting": "[5]; 17.5 g ae/ha, construct 3404 event 022 clone 016", "result": 0, "unit": "%"}, {"measurement": "% Injury 14 DAT", "setting": "[5]; 17.5 g ae/ha, construct 3404 event 022 clone 020", "result": 0, "unit": "%"}]}
{"smiles": "CC(Oc1ccc(Cl)cc1Cl)C(=O)O", "note": "(racemic) [(R,S)-dichlorprop, 2,4-dichlorophenoxypropionic acid]", "values": [{"measurement": "IC50", "setting": "[1]; Arabidopsis thaliana, AAD1 (v1)-expressing lysate, nominal concentration, read-out: GR50, Chemical + AAD1 v1", "result": 1000, "unit": "nM"}, {"measurement": "IC50", "setting": "[1]; [7]", "result": 30, "unit": "nM"}, {"measurement": "GR50 ratio", "setting": "[1]", "result": 33}, {"measurement": "herbicidal activity after AAD1 (v1) treatment, Arabidopsis plate assay", "setting": "[1]", "result": "effectively degraded"}]}
{"smiles": "C[C@@H](Oc1ccc(Oc2cnc3cc(Cl)ccc3n2)cc1)C(=O)O", "note": "[quizalofop]", "values": [{"measurement": "injury of non-transformed hybrids", "setting": "[2]; 70 g ae/ha, field", "result": "80-100%"}, {"measurement": "% Injury 3 WAA (0-100 scale)", "setting": "[2]; HI, CROPLAN 585SR", "result": 96, "unit": "%"}, {"measurement": "% Injury 3 WAA (0-100 scale)", "setting": "[2]; HI, DK493", "result": 100, "unit": "%"}, {"measurement": "% Injury 3 WAA (0-100 scale)", "setting": "[2]; HI, HI-II X 5XH571", "result": 100, "unit": "%"}, {"measurement": "% Injury 3 WAA (0-100 scale)", "setting": "[2]; IN, CROPLAN 585SR", "result": 80, "unit": "%"}, {"measurement": "% Injury 3 WAA (0-100 scale)", "setting": "[2]; IN, DK493", "result": 100, "unit": "%"}, {"measurement": "% Injury 3 WAA (0-100 scale)", "setting": "[2]; IN, HI-II X 5XH571", "result": 100, "unit": "%"}, {"measurement": "lethal dose", "setting": "[3]; Assure II + 1% COC (v/v)", "result": 4.4, "unit": "g ae/ha)"}, {"measurement": "rate that effectively kills (>95% injury) three to four leaf Hi-II corn", "setting": "[3]", "result": 4.4, "unit": "g ae/ha"}, {"measurement": "concentration sufficient to kill callus within six weeks", "setting": "[4]", "result": 150, "unit": "nM"}, {"measurement": "injury of most AAD1 (v3) T0 lines", "setting": "[5]; 8× field dose (64× lethal dose), 14 DAT", "result": "no visible injury"}, {"measurement": "% Injury 14 DAT", "setting": "[5]; 8.8 g ae/ha, construct 3404 event 001 clone 017", "result": 0, "unit": "%"}, {"measurement": "% Injury 14 DAT", "setting": "[5]; 8.8 g ae/ha, construct 3404 event 001 clone 019", "result": 30, "unit": "%"}, {"measurement": "% Injury 14 DAT", "setting": "[5]; 8.8 g ae/ha, construct 3404 event 022 clone 021", "result": 0, "unit": "%"}, {"measurement": "% Injury 14 DAT", "setting": "[5]; 8.8 g ae/ha, construct 3404 event 038 clone 017", "result": 0, "unit": "%"}, {"measurement": "% Injury 14 DAT", "setting": "[5]; 17.5 g ae/ha, construct 3404 event 022 clone 017", "result": 0, "unit": "%"}, {"measurement": "% Injury 14 DAT", "setting": "[5]; 35 g ae/ha, construct 3404 event 001 clone 020", "result": 0, "unit": "%"}, {"measurement": "% Injury 14 DAT", "setting": "[5]; 35 g ae/ha, construct 3404 event 017 clone 018", "result": 0, "unit": "%"}, {"measurement": "% Injury 14 DAT", "setting": "[5]; 35 g ae/ha, construct 3404 event 017 clone 019", "result": 0, "unit": "%"}, {"measurement": "% Injury 14 DAT", "setting": "[5]; 35 g ae/ha, construct 3404 event 022 clone 022", "result": 0, "unit": "%"}, {"measurement": "% Injury 14 DAT", "setting": "[5]; 35 g ae/ha, construct 3404 event 033 clone 012", "result": 0, "unit": "%"}, {"measurement": "% Injury 14 DAT", "setting": "[5]; 35 g ae/ha, construct 3404 event 038 clone 019", "result": 70, "unit": "%"}, {"measurement": "% Injury 14 DAT", "setting": "[5]; 35 g ae/ha, construct 3404 event 038 clone 020", "result": 80, "unit": "%"}, {"measurement": "% Injury 14 DAT", "setting": "[5]; 70 g ae/ha, construct 3404 event 017 clone 020", "result": 0, "unit": "%"}, {"measurement": "% Injury 14 DAT", "setting": "[5]; 70 g ae/ha, construct 3404 event 017 clone 021", "result": 0, "unit": "%"}, {"measurement": "% Injury 14 DAT", "setting": "[5]; 70 g ae/ha, construct 3404 event 022 clone 023", "result": 0, "unit": "%"}, {"measurement": "% Injury 14 DAT", "setting": "[5]; 70 g ae/ha, construct 3404 event 033 clone 013", "result": 0, "unit": "%"}, {"measurement": "% Injury 14 DAT", "setting": "[5]; 70 g ae/ha, construct 3404 event 033 clone 014", "result": 0, "unit": "%"}, {"measurement": "% Injury 14 DAT", "setting": "[5]; 70 g ae/ha, construct 3404 event 038 clone 021", "result": 80, "unit": "%"}, {"measurement": "% Injury 14 DAT", "setting": "[5]; 70 g ae/ha, construct 3404 event 038 clone 022", "result": 80, "unit": "%"}, {"measurement": "% Injury 14 DAT", "setting": "[5]; 140 g ae/ha, construct 3404 event 017 clone 022", "result": 0, "unit": "%"}, {"measurement": "% Injury 14 DAT", "setting": "[5]; 140 g ae/ha, construct 3404 event 017 clone 023", "result": 30, "unit": "%"}, {"measurement": "% Injury 14 DAT", "setting": "[5]; 140 g ae/ha, construct 3404 event 033 clone 015", "result": 0, "unit": "%"}, {"measurement": "% Injury 14 DAT", "setting": "[5]; 280 g ae/ha, construct 3404 event 017 clone 024", "result": 30, "unit": "%"}, {"measurement": "% Injury 14 DAT", "setting": "[5]; 280 g ae/ha, construct 3404 event 017 clone 025", "result": 20, "unit": "%"}, {"measurement": "% Injury 14 DAT", "setting": "[5]; 280 g ae/ha, construct 3404 event 033 clone 016", "result": 0, "unit": "%"}]}
